According to patent US9326996B2, “Use of xenon as neuroprotectant in a neonatal subject” (IMPERIAL INNOVATIONS LIMITED, priority 2004, dated 2016):
Where two headings read alike, the source gives them in different places.

Legend:
[1] = test system: activated caspase-3 in cortex; assay: Cortical activated caspase-3 immunohistochemistry after anesthetic gas exposure
Procedure: (§1) 7 day old Sprague-Dawley rat pups were placed in individual wells of a custom-built anesthetic chamber, and randomised to groups A-F to receive one of 6 gas combinations for 6 hours. Previous work has established that NMDA receptor antagonists have their maximal neurodegenerative affect 7 days after birth (Ikonomidou et al., 1999).
(§2) Group B received 75% nitrous oxide and 25% oxygen as delivered by a calibrated anesthetic machine, whereas group C received 75% xenon along with 25% oxygen through a customised anesthetic machine modified for xenon delivery (Ohmeda, modified by Air Products, Surrey, UK). Group D were exposed to 25% oxygen along with 0.75% isoflurane. The remaining 2 groups were exposed to combinations of gases—namely 25% oxygen+75% nitrous oxide+0.75% isoflurane (group E) and 25% oxygen+60% xenon+15% nitrogen+0.75% isoflurane (group F). The high cost of xenon precludes its use in an open-circuit, consequently group C and group F received gases using a closed-circuit system, whereas gases for all other groups were delivered in a high-flow open-circuit.
(§3) Rats destined for immunohistochemistry were sacrificed with 100 mg kg^−1 sodium pentobarbital IP immediately post-anesthesia, whereas those rats for DeOlmos silver staining were allowed to recover for 18 hrs before undergoing the same procedure. A thoracotomy was performed, and the aorta cannulated via a needle inserted into the apex of the heart. The pup was then perfused with 10 ml of 1% heparin solution, with the excess solution leaving through an incision in the right atrium. To fix the tissues, 20 ml of 4% paraformaldehyde in 0.1M phosphate buffer was injected by the same transcardial route. The whole brain was then removed and allowed to fix in paraformaldehyde perfusate and refrigerated at 4° C. 24 hours later, the brains were transferred to a solution of 30% sucrose with phosphate buffer and 1% sodium azide, and were kept refrigerated until the brains sank (approximately 48 hours).
(§4) Once processed, a block was cut to safely include the area of interest—a coronal section −3.6 mm from the bregma (FIG. 1B). The blocks were then embedded and frozen into O.C.T. solution. The block was then cut coronally into approximately 120 slices, each 30 μm thick, with a cryostat (Bright Instrument Company Ltd., Huntingdon, UK). The cut sections were transferred to a 6 well plate containing phosphate buffered saline (PBS).
A random well from each cut block, each containing around 20 representative slices of the total block, was transferred to a marked silk-bottomed well using a 3 ml Pasteur pipette. The sections were then washed in 5 ml of PBS for 5 min on a shaker set at 75 rpm. This washing procedure was repeated twice more, replacing the PBS each time. To quench the sections, they were incubated at room temperature on a shaker for 30 min in a solution comprising 35 ml methanol, 15 ml of PBS and 500 μl of stock 30% H2O2.
The quenching solution was then removed, and the sections washed three times in PBS. Sections were blocked for 60 min at room temperature with 50 ml of PBST (PBS containing 0.5% Triton-X (Promega Corporation, Madison, Wis.)), and 1500 μl of normal goat serum (NGS) (Vector Laboratories Inc., Burlingame, Calif.). For incubation with the primary antibody, the sections were kept overnight at 4° C. on a shaker set at 50 rpm in a solution made up of […] rabbit anti-cleaved caspase-3 antibody (New England Biolabs, Hertfordshire, UK), 50 ml of PBST and 500 μl of NGS. […]

[2] = test system: activated caspase-3 in hippocampus; assay: Hippocampal activated caspase-3 immunohistochemistry after anesthetic gas exposure
Procedure: as §1, §2, §3, §4
A random well from each cut block, each containing around 20 representative slices of the total block, was transferred to a marked silk-bottomed well using a 3 ml Pasteur pipette. The sections were then washed in 5 ml of PBS for 5 min on a shaker set at 75 rpm. This washing procedure was repeated twice more, replacing the PBS each time. […]

[3] = in vivo; cited from earlier work
pure neuronal cultures = assay: FACS assessment of necrotic, viable and apoptotic cell populations after preconditioning and oxygen glucose deprivation
Procedure: Neuronal cells were harvested from 19 day old embryonic mice by cesarean section for pregnant BALB/c mice. 6-9 mouse brains were removed from fetal mice and dissected to isolate whole cerebral neocortices devoid of the hippocampus, basal ganglia and meninges. Again throughout the micro dissection process, brain tissues were kept in 4° C. HSG solution. […] The cells were plated at a density of 1.2×10^5 cells, per cm^2 on 24-multiwell plates (Cater, Cambridge, Mass.) and the cultures were maintained at 37° C. in a humidified 5% CO2 environment. Neurobasal Media supplemented with B27, glutamine and AAS was used to resuspend the neuronal cells and as culture medium. For every 10 ml of Neurobasal Media, the following supplements were added: 200 μl B27, 100 μl antibiotic and 25 μl glutamine. Medium replacement for these cells was performed on day 2, 5 and 7 with pre-warmed 37° C. culture medium (Neurobasal Media, B27, Glutamine and AAS). On day 5 after neuronal plating, 100 μl/10 ml cytosine arabinoside (CA hydrochloride, Sigma) was added to the cell cultures to halt non-neuronal cell division. Neuronal cell cultures were ready to use on day 7.
Cells were preconditioned using a purpose built 1.4 liter airtight, temperature controlled gas chambers. The chambers had inlet and outlet valves and an internal electric fan to ensure effective and continuous delivery of gases. Gas flow rate was 100 ml/min, and so chambers were flushed and allowed to equilibrate for 45 minutes before establishing a closed system. Cells were preconditioned for 2 hours inside the closed system with the appropriate gas concentrations using flow meters. Sevoflurane was delivered using a vaporiser (Datex-Ohmeda).
To model ischaemic damage in the brain, neuronal cells were subjected to oxygen glucose deprivation. Twenty four hours after preconditioning cells, cultures were washed twice with HEPES buffer solution (120 mM NaCl, 5.4 mM KCL, 0.8 mM MgCl2, 15 mM glucose and 20 mM HEPES, titrated to pH 7.4 using 1M NaOH). […] The cells were exposed to this anoxic environment for 75 minutes. Oxygen glucose deprivation was terminated by removing the cultures from the gas chamber and changing the media; cultures destined for lactate dehydrogenase (LDH) assay were washed once and replaced with Eagle's minimal essential medium enhanced with 25 mM glucose and 38 mM NaHCO3, whereas pure neuronal cultures for FACS were washed once and replaced with Neurobasal Media supplemented with B27, glutamine and AAS.
Twenty fours hours after oxygen glucose deprivation, cells were stained for FACS analysis. The culture medium was removed and washed twice with HEPES buffer solution. […] Cells were then washed twice with 1×BB, and then 0.8 μg/ml propidium iodide (Sigma-Aldrich, Poole, UK) in 1% fetal bovine serum (FBS) in phosphate buffer solution (PBS) was added and left to incubate on ice for 5 minutes. […] 800 μl 1% FBS in PBS was then added to stop the reaction, cells were removed and added to tubes for centrifugation at 1200 g for 10 minutes. The supernatant was discarded and the cells were re-suspended with 300 μl 1% FBS in PBS. Steps, if possible, were performed on ice to reduce the amount of neuronal death.
A FACSCalibur (Becton Dickinson, Sunnyvale, Calif.) with a single argon laser was used for flow cytometric analysis. […] At least 10,000 cells per sample were analysed.

[4] = test system: neuronal glial co-culture; assay: LDH release after preconditioning and oxygen glucose deprivation, neuronal glial co-culture; format: cell-based, mouse; conditions: for LDH release following oxygen glucose deprivation: 2 h preconditioning
Procedure: The pups were anaesthetised with isoflurane and then decapitated with the heads placed immediately into 4° C. HSG solution, an isotonic, high sucrose glucose solution made primarily from Hank's balanced salt solution (HBSS, GibroBRL) enhanced with NaHCO3 (0.04 M), sucrose (0.2 M) and D-Glucose (0.3 M) also containing antibiotic-anti-mycotic solution (AAS, GibroBRL). […] HSG solution.
The brain tissue was then immersed in 0.25% trypsin and was placed in a shaking air chamber for 50 minutes at 37° C. filled with 5% CO2 and 95% room air. DNase was then added to the mixture and placed back into the shaking air chamber for a further 15 minutes. The mixture was then centrifuged at 1600 rpm for 10 minutes at 4° C. and the supernatant was carefully discarded. The cells were then resuspended and then plated at a density of 6.25×10^4 cells/cm^2 on 24-multiwell plates (Costar, Cambridge, Mass.) and cultured in a medium consisting of Eagle's minimum essential medium augmented with 20 mM glucose, 26 mM NaHCO3, 10% foetal bovine serum, 10% heat-inactivated horse serum, AAS (Gibco, Paisley, UK), 2 mM glutamine (Sigma, Poole, UK) and 10 ng/ml murine epidermal growth factor (EGF) (GibcoBRL). Glial cells reached confluence about one week after plating.
Using a similar procedure cortical neuronal cells were obtained from fetal BALB/c mice at 14-16 days of gestation and plated at a density of 1.25×10^5 cells per cm^2 on the confluent monolayer of glial cells derived from the corresponding genetic strain. Neuronal cells reached confluence 10 days after plating.
Sevoflurane was delivered using a vaporiser (Datex-Ohmeda).
The amount of neuronal damage was assessed by the amount of LDH released into the culture medium, using a standardised colorimetric enzyme kit (Sigma, Poole, UK). This technique has been previously described (Wilhelm et al 2002). LDH assessment was performed 16 hours after oxygen glucose deprivation (FIG. 8).

[5] = Sprague-Dawley, rat, in vivo, 6 h
[6] = 7 day old Sprague-Dawley rats, 6 h exposure with 25% oxygen, 75% N2O, 75% xenon, 0.75% isoflurane, 75% N2O+0.75% isoflurane, 60% xenon+0.75% isoflurane, air control 19.3±6.4
[7] = 12.5% xenon, 0.67% sevoflurane or their combination as preconditioning, then oxygen glucose deprivation

## [N-]=[N+]=O [N2O, nitrous oxide]
[1]; [5]
  number of caspase-3 positive cells in cortex (mean±SD): 22.5±5.9
[2]; [5]
  number of caspase-3 positive cells in hippocampus (mean±SD): 3.7±1.4

## [Xe] [xenon]
[3]
  atmosphere sufficient to induce or maintain anesthesia: about 70%
[1]; [6]
  number of caspase-3 positive cells in cortex (mean±SD): 19.7±9.6
[2]; 7 day old Sprague-Dawley rats, 6 h exposure with 25% oxygen, 75% N2O, 75% xenon, 0.75% isoflurane, 75% N2O+0.75% isoflurane, 60% xenon+0.75% isoflurane, controls 5.2±1.8
  number of caspase-3 positive cells in hippocampus (mean±SD): 5.0±3.2
Pure neuronal cultures
  necrotic cell population: 75+/−2%
Pure neuronal cultures; [7]
  apoptotic cell population: 9+/−1%
  viable cell population: 9%
[4]; xenon at 12.5%, not significant
  LDH release following oxygen glucose deprivation: 83+/−7 % of controls
[4]; xenon at 25%, not significant
  LDH release following oxygen glucose deprivation: 70+/−11 % of controls
[4]; xenon at 50%, p<0.05
  LDH release following oxygen glucose deprivation: 55+/−12 % of control values
[4]; xenon at 75%, p<0.05
  LDH release following oxygen glucose deprivation: 49+/−12 % of control values

## FCOC(C(F)(F)F)C(F)(F)F [sevoflurane]
[3]
  atmosphere sufficient to maintain anesthesia: about 2.5%
[1]; 1.5% sevoflurane alone, control value 20.0±2, brain region not stated
  degenerating neurons, positive cells: 42±2 positive cells
Pure neuronal cultures; [7]
  apoptotic cell population: 17+/−1%
  viable cell population: 9%
Pure neuronal cultures; 12.5% xenon, 0.67% sevoflurane or their combination as preconditioning, then oxygen glucose deprivation, sham 70+/−2%, control 17+/−1%
  necrotic cell population: 81+/−2%
[4]; 2 h preconditioning followed by OGD
  concentration producing a significant reduction in LDH release: greater than 1.9%
[4]; sevoflurane at 0.67%, ineffective
  LDH release following oxygen glucose deprivation: 97+/−5 % of controls
[4]; sevoflurane at 1.3%
  LDH release following oxygen glucose deprivation: 100+/−11 % of controls
[4]; sevoflurane at 2.7%, p<0.05
  LDH release following oxygen glucose deprivation: 64+/−6 % of control
[4]; sevoflurane at 3.3%, p<0.001
  LDH release following oxygen glucose deprivation: 37+/−5 % of controls

## FC(F)OC(Cl)C(F)(F)F (centres unmarked) [isoflurane]
[1]; 0.75% isoflurane or 75% N2O+0.75% isoflurane, neonatal rats
  increase in the level of apoptosis in the cortex vs controls: 4 fold
[1]; [6]
  number of caspase-3 positive cells in cortex (mean±SD): 76.5±11.4
[2]; [5]
  increase in the level of apoptosis in the hippocampus vs controls: 4 fold
  number of caspase-3 positive cells in hippocampus (mean±SD): 22.1±9.6
